Experimental data as given in patent publication US9821002B2, “Method for alleviating radiation injury with isorhamnetin-3-O-β-D-glucoside” (Sinotai Oncology Associate., Ltd., priority 2015, dated 2017).

Tested on: NMuMG cells
Assay: Apoptosis assay (FITC Annexin V/PI) after X-ray irradiation
Type: cell-based, mouse
Settings: 2 h pretreatment, X-ray 15 Gy, 72 hours, mean ± SEM
Description: Four groups of BNL CL.2 cells (i.e., a normal control group referred to as Normal Control Group 1-A, an X-ray control group referred to as X-Ray Control Group 1-A, and two experimental groups referred to as Experimental Groups 1-A to 2-A), and six groups of NMuMG cells (i.e., a normal control group referred to as Normal Control Group 1-B, an X-ray control group referred to as X-Ray Control Group 1-B, two isorhamnetin groups referred to as Isorhamnetin Groups 1 to 2, and two experimental groups referred to as Experimental Groups 1-B to 2-B), were prepared based on the procedure set forth in “Source and cultivation of cell lines” of “Experimental materials”. BNL CL.2 cells in each group were cultivated using 5 mL of a corresponding medium shown in Table 1 and a 6-cm Petri dish in an amount of 2×10^5 cells per dish. Likewise, NMuMG cells in each group were cultivated using 5 mL of a corresponding medium shown in Table 1 and a 6-cm Petri dish in an amount of 2.5×10^5 cells per dish. The cultivation was conducted in an incubator (37° C., 5% CO2) for 24 hours.
Subsequently, medium was replaced with fresh medium. The obtained cultures in Experimental Groups 1-A, 1-B, 2-A, and 2-B were pretreated with the stock solution of isorhamnetin-3-O-β-D-glucoside, and the obtained cultures in Isorhamnetin Groups 1 to 2 were pretreated with the stock solution of isorhamnetin.
The culture in each group was then cultivated in an incubator (37° C., 5% CO2) for two hours. The resultant culture was used for the following experiments in sections B to D.
The cultures in X-Ray Control Group 1-A, X-Ray Control Group 1-B, Isorhamnetin Group 1, Isorhamnetin Group 2, Experimental Group 1-A, Experimental Group 1-B, Experimental Group 2-A, and Experimental Group 2-B, prepared according to section A of “Experimental procedures” in this example, were subjected to X-ray irradiation using a linear accelerator at a dose of 15 Gy. The cultures in Normal Control Groups 1-A and 1-B received no X-ray irradiation treatment. The culture of BNL CL.2 cells in each group was cultivated using a 6-cm Petri dish in an incubator (37° C., 5% CO2) for 96 hours, and the culture of NMuMG cells in each group was cultivated using a 6-cm Petri dish in an incubator (37° C., 5% CO2) for 72 hours. 1 mL of trypsin-EDTA was added to the culture in each group so as to detach the cells from the bottom of the Petri dish. Following this, 1 mL of a fresh medium (corresponding to the medium described in Table 1) was added to neutralize the activity of the trypsin, and the resultant cell suspension was transferred to a centrifuge tube with a pipette, followed by centrifugation at 1200 rpm for three minutes. The supernatant was removed, and the cell pellet thus obtained was washed once with cold PBS (pH 7.4), followed by centrifugation at 1200 rpm for 3 minutes. The supernatant was removed, and 100 μL of cold Annexin V binding buffer (BD Pharmingen™) was added to sufficiently re-suspend the cell pellet thereby obtaining a cell suspension having a cell concentration of 1.0×10^6 cells/mL. Afterward, 5 μL of FITC Annexin V (BD Pharmingen™) and 5 μL of propidium iodide (PI) staining solution (BD Pharmingen™) were added to the obtained cell suspension, followed by mixing evenly and standing in the dark at 4° C. for 30 minutes so as to obtain stained cells.
Subsequently, the stained cells were analyzed using BD Accuri™ C6 flow cytometry, in which cells that could be stained with FITC Annexin V but not with PI (i.e., FITC Annexin V positive and PI negative) represented cells that were induced with early apoptosis; cells stained with both FITC Annexin V and PI (i.e., FITC Annexin V positive and PI positive) represented cells that were induced with late apoptosis; and cells that could not be stained with FITC Annexin V and PI (i.e., FITC Annexin V negative and PI negative) represented viable cells. The number of stained cells was calculated using BD Accuri™ C6 software. […]

SMILES: COc1cc(-c2oc3cc(O)cc(O)c3c(=O)c2O)ccc1O [Isorhamnetin]
- Apoptosis percentage (15 μM): 22.87 ± 1.33%
- Apoptosis percentage (30 μM): 22.13 ± 0.29%
